Patent US20090105461A1, “Calicheamicin conjugates” (priority 2004, published 2009)

Key:
[1] = system: human carcinoma xenografts; test: Human carcinoma xenografts in nude mice (all models); format: in vivo; settings: doses equivalent to hu3S193-AcBut-CM; earlier experiments, data not shown
Procedure: (§1) The antitumor efficacy of calicheamicin conjugated to anti-Lewis Y antibodies was evaluated against human carcinoma xenografts established subcutaneously (SC) in nude mice. The evaluated xenografts included carcinomas that had either high or low expression of the Lewis Y antigen and carcinomas from breast, colon, lung, and prostate. Mice bearing solid tumors with an average mass of 150 to 300 mg were randomized to various treatment groups.
(§2) The efficacy in vivo of CMD-193 was tested on subcutaneous xenografts from gastric (N87), lung (L2987), cervical/epidermoid (A431/Le^y) and colon (LS174T and LOVO) carcinomas. Unless indicated otherwise, all conjugates and controls were injected intraperitoneally according to Q4DX3 schedule. To monitor for tumor targeting due to the carrier function of immunoglobulin, CMA was used as a negative control. Based on the studies described below, a dosage of 15 mg/kg of CMD-193 (equivalent to a conjugated antibody protein dosage in the range of 562 to 803 mg/m^2) was considered to be the minimum efficacious dose (MED).

[2] = system: HL-60 promyelocytic leukemia cells; settings: HL-60 leukemia cells
[3] = system: N87 gastric carcinoma xenografts; test: N87 gastric carcinoma xenografts; format: in vivo, nude mice; settings: 150 mm^3 xenografts
Procedure: as §1
(§3) The efficacy in vivo of hu3S193-AcBut-CM was tested on subcutaneous xenografts from gastric (N87, FIG. 3), prostate (LNCaP, FIG. 4) and colon (LOVO, FIGS. 5 and 6) carcinomas. Subcutaneous tumors of N87, LOVO and LNCaP were grown in athymic nude mice (Charles River, Wilmington, Mass.). Female mice of 1.5 to 3 months old were injected with respectively 5×10^6 N87 or 10^7 LOVO cells per mouse. LNCaP cells were injected in male nude mice that were 3 months old. To grow tumors, N87 and LNCaP cells had to be mixed (1:1, vol/vol) with […]® (Collaborative Biomedical Products, Belford, Mass.) prior to injection. Two perpendicular diameters of the tumor were measured at least once a week by means of calipers. The tumor volume was calculated according to the formula of Attia & Weiss: A^2×B×0.4.
Unless indicated otherwise, 3 doses of each conjugate and control were given intraperitoneally with an interval of 4 days (Q4Dx3). […]

[4] = system: MX1 breast carcinoma xenografts; test: MX1 breast carcinoma xenografts; format: in vivo, nude mice; settings: MX1, at least 35 days
Procedure: The effect of CMD-193 on the growth of established xenografts of carcinomas that had low expression of the Lewis Y antigen was also examined in MX1 breast carcinoma. CMA-676 was used as a nonbinding control conjugate. Nude mice explanted with MX1 breast carcinoma were treated with various dosages of CMD-193 (40 to 240 mg/kg) or CMA-676 (a negative control). Tumor growth was recorded for at least 35 days. In contrast, CMA-676 was effective only at the highest dosages (160 mg/kg) tested.

[5] = system: LS174T colon carcinoma xenografts; test: LS174T colon carcinoma xenografts; format: in vivo, nude mice
Procedure: as §2
Mice bearing LS174T xenografts of 150 mm^3 were treated with a control conjugate (CMA), PBS or CMD. Mice in each group received three doses i.p. The amount of each dose in calicheamicin equivalents is specified in the legends. Conjugates and controls were injected at day 1, 5 and 9. LS174T tumors proliferated so fast that in the control group all the mice had to be killed within a 51-day period because of the large tumor burden (>2.5 cm^3). In the group treated with 4 ug cal.eq. CMD (Q4DX3), 3 out of five mice were killed within 44 days because of a large tumor burden (1/3) or because of necrosis of the tumor (2/3). Of the other two mice one remained tumor-free for 125 days while the other one had developed a small tumor. […] CMD (Q4DX3) or 4 ug cal.eq CMA (Q4DX3). […]

[6] = system: L2987 lung carcinoma xenografts; test: L2987 lung carcinoma xenografts; format: in vivo, nude mice; settings: 0.375 to 3 μg/dose/mouse, Q4DX3 i.p.
Procedure: as §2
Mice bearing L2987 xenografts of 100 mm^3 were treated with a control conjugate (CMA), PBS or CMD. Mice in each group received three doses i.p. The amount of each dose in calicheamicin equivalents is specified in the legends. Conjugates and controls were injected at day 1, 5 and 9. […] The error bars represent the standard deviation of the average tumor volume at each time point. The number of mice (expressed as a percentage) with a tumor size smaller than the initial tumor average of each group was plotted as a function of the observation period in FIG. 12. Treatment with CMA (FIG. 12A) or CMD (FIG. 12B) is compared to treatment with vehicle control (PBS).
For the experiment shown in FIG. 13, 10 mice received L2987 xenografts. […]

[7] = system: LOVO colon carcinoma xenografts; test: LOVO colon carcinoma xenografts; format: in vivo, nude mice; settings: for tumor inhibition of LOVO xenografts: hu3S193-AcBut-CM experiments (FIGS. 5, 6)
Procedure: as §3
Unless indicated otherwise, 3 doses of each conjugate and control were given intraperitoneally with an interval of 4 days (Q4Dx3). In vivo, hu3S193-AcBut-CM inhibited tumor growth in these three separate models. Hu3S193-AcBut-CM cured mice from gastric carcinoma xenografts (N87) having high expression of Lewis Y antigen (FIG. 3). […] In the LOVO model, the efficacy of hu3S193-AcBut-CM was improved by increasing the amount of the conjugate (FIG. 5).
Mice bearing LOVO xenografts of 100 mm^3 were treated with control conjugates (RITUXAN-AcBut-CM, FIG. 5A), PBS (FIGS. 5A and 5B), hu3S193 (FIG. 5B) or hu3S193-AcBut-CM (FIG. 5B). Except for the group treated with Hu3S193-AcBut-CM at 4 μg/dose, mice in each group received three doses i.p. The amount of each dose in calicheamicin equivalents is specified in the legend. Conjugates and controls were injected at day 1, 5 and 9. The groups were designated as follows: hu3S193-AcBut-CM, received an additional regimen of three doses at day 43, 47 and 51. The number of mice per group (n) is reported in C. Differences in tumor size at day 30 were probed for statistical significance by a 2-tailed Students t-test.
Mice bearing LOVO xenografts of 100 mm^3 were treated with control conjugates: RITUXAN-AcBut-CM and CMA (FIG. 6A), PBS or hu3S193-AcBut-CM (FIG. 6B). Mice in each group received three or four doses i.p. The amount of each dose in calicheamicin equivalents is specified in the legend. Conjugates and controls were injected at day 1, 5 and 9. The group designated: hu3S193-AcBut-CM*, received an additional dose at day 13. The number of mice per group equals n and p-values of a 2-tailed Students t-test were determined.
Mice bearing LOVO xenografts were tested to investigate the potential benefits of regimens different from 4 μg cal.eq./dose/mouse at Q4DX3. Mice bearing LOVO xenografts of approximately 100 mm^3 were treated with PBS, G193 or various regimens of a control conjugate CMA or CMD. The amount of each dose in calicheamicin equivalents is specified in the legends. The LOVO-model was chosen for this type of experiment because of the marginal efficacy seen with 4 μg cal.eq. at Q4DX3.

Row | Compound | major biotransformation pathways (cytosol) | metabolites after incubation (human liver microsomes and cytosol) | biotransformation pathways (microsomes) | tumor inhibition by free CM [1] | metabolites produced [2] | growth inhibition versus hu3S193-AcBut-CM or CMD at equivalent doses [3] | lowest dosage with significant growth inhibition [4] [mg/kg] | cures ([5]; 2 ug cal.eq. Q4DX3) | cures ([5]; 4 ug cal.eq. Q4DX3) | growth of L2987 xenografts [6] | efficacy on LOVO xenografts ([7]; CMD experiment (FIG. 18)) | tumor inhibition of LOVO xenografts [7] | period of statistically significant difference in tumor size from PBS ([7]; 2 μg cal.eq. per mouse Q4Dx3) [days] | period of statistically significant difference in tumor size from PBS ([7]; 4 μg cal.eq. per mouse Q4Dx3) [days]
1 | CCN(C(C)=O)[C@H]1CO[C@@H](O[C@H]2[C@H](O[C@H]3C#C/C=C\C#C[C@]4(O)CC(=O)C(NC(=O)OC)=C3/C4=C\CSSC(C)(C)CC(=O)NN)O[C@H](C)[C@@H](NO[C@H]3C[C@H](O)[C@H](SC(=O)c4c(C)c(I)c(O[C@@H]5O[C@@H](C)[C@H](O)[C@@H](OC)[C@H]5O)c(OC)c4OC)[C@@H](C)O3)[C@@H]2O)C[C@@H]1OC [CM, N-acetyl gamma calicheamicin dimethyl hydrazide] | formation of NAc-epsilon calicheamicin and it's derivatives | Many metabolites were found | hydroxylation and demethylation | never inhibited | Several metabolites, including NAc-epsilon calicheamicin and its isomer |  |  |  |  |  |  |  |  | 
2 | CMA-676: calicheamicin conjugate of an anti-CD33 antibody, used as control conjugate |  |  |  |  |  | inhibited growth significantly less | 160 | one out of the five | No cures | significant growth inhibitory effect | lack of efficacy | negligible tumor inhibition |  | 
3 | RITUXAN-AcBut-CM: calicheamicin-conjugate of RITUXAN (anti-CD20), control conjugate |  |  |  |  |  |  |  |  |  |  |  | negligible tumor inhibition | 16 | 16
